Data taken from patent US9328138B2 (priority 2011, dated 2016).

Key:
[1] = biological target: HCV NS3 protease genotype 3a (3A-1) (Hepatitis C virus genotype 3a, UniProt Q81258); assay: HCV NS3 protease time-resolved fluorescence (TRF) assay, genotype 3a; assay type: biochemical; conditions: Ki 3a
Summary of the method: (§1)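 Pre-incubation of NS3/NS4A protease with inhibitor for 10 min in pH 7.5 HEPES buffer with 10 mM DTT; 25 nM TRF peptide substrate, hydrolysis 6 h at room temperature. Fluorescence read at ex 340/em 615 nm with 400 μs delay, enzyme level set for S/B 5-20; IC50 by four-parameter fit.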

[2] = biological target: T1, HCV genotype 1b (BK) NS3 modified enzyme with a R155K mutation (Hepatitis C virus genotype 1b, UniProt P26663, R1181K); assay: HCV NS3 protease time-resolved fluorescence (TRF) assay, genotype 1b R155K; assay type: biochemical; conditions: Ki 1b R155K, genotype 1b (BK) NS3 R155K; single value
T1 construct: HCV genotype 1b (BK) NS3 modified enzyme
Summary of the method: as §1

Work on `C=C[C@@H]1C[C@]1(NC(=O)[C@@H]1C[C@@H]2CN1C(=O)[C@H](C(C)(C)C)NC(=O)O[C@@H]1CCC[C@H]1CC/C=C/Cc1c(nc3ccccc3c1OCCCN1CCOCC1)O2)C(=O)NS(=O)(=O)C1(C)CC1` [Example 91, (3aR,7S,10S,12R,21E,24aS)-7-tert-butyl-N-[(1R,2S)-2-ethenyl-1-{[(1-methylcyclopropyl)sulfonyl]carbamoyl}cyclopropyl]-19-[3-(morpholin-4-yl)propoxy]-5,8-dioxo-1,2,3,3a,5,6,7,8,11,12,20,23,24,24a-tetradecahydro-10H-9,12-methanocyclopenta[18,19][1,10,3,6] dioxadiazacyclononadecino[11,12-b] quinoline-10-carboxamide] yielded a Ki [1] of 1 nM and a Ki [2] of 0.16 nM.

In the case of `C=C[C@@H]1C[C@]1(NC(=O)[C@@H]1C[C@@H]2CN1C(=O)[C@H](C1CCCC1)NC(=O)O[C@@H]1CCC[C@H]1CC/C=C/Cc1c(nc3ccccc3c1OCCCN1CCCC(C)(C)C1)O2)C(=O)NS(=O)(=O)C1CC1` [Example 92, (3aR,7S,10S,12R,21E,24aS)-7-cyclo pentyl-N-{(1R,2S)-1-[(cyclopropylsulfonyl)carbamoyl]-2-ethenylcyclopropyl}-19-[3-(3,3-dimethylpiperidin-1-yl)propoxy]-5,8-dioxo-1,2,3,3a,5,6,7,8,11,12,20,23,24,24a-tetradeca hydro-10H-9,12-methano-cyclopenta[18,19][1,10,3,6]dioxa diazacyclononadecino[11,12-b] quinoline-10-carboxamide], the Ki [1] is reported as 19 nM and the Ki [2] is reported as 1.6 nM.

`C=C[C@@H]1C[C@]1(NC(=O)[C@@H]1C[C@@H]2CN1C(=O)[C@H](C1CCCC1)NC(=O)O[C@@H]1CCC[C@H]1CC/C=C/Cc1c(nc3ccccc3c1OC(=O)NC(C)C)O2)C(=O)NS(=O)(=O)C1CC1` [Example 93, (3aR,7S,10S,12R,21E,24aS)-7-cyclopentyl-10-({(1R,2S)-1-[(cyclopropylsulfonyl)carbamoyl]-2-ethenylcyclopropyl}carbamoyl)-5,8-dioxo-1,2,3,3a,5,6,7,8,11,12,20,23,24,24a-tetradecahydro-10H-9,12-methanocyclopenta[18,19][1,10,3,6]dioxadiazacyclononadecino[11,12-b]quinolin-19-yl propan-2-ylcarbamate] was tested, and the Ki [1] was 2.8 nM and the Ki [2] was 0.26 nM.

Work on `C=C[C@@H]1C[C@]1(NC(=O)[C@@H]1C[C@@H]2CN1C(=O)[C@H](C1CCCC1)NC(=O)O[C@@H]1CCC[C@H]1CC/C=C/Cc1c(nc3ccccc3c1OCCCN)O2)C(=O)NS(=O)(=O)C1CC1` [Example 94, (3aR,7S,10S,12R,21E,24aS)-19-(3-aminopropoxy)-7-cyclopentyl-N-{(1R,2S)-1-[(cyclopropylsulfonyl)carbamoyl]-2-ethenylcyclopropyl}-5,8-dioxo-1,2,3,3a,5,6,7,8,11,12,20,23,24,24a-tetradecahydro-10H-9,12-methanocyclopenta[18,19][1,10,3,6]dioxadiazacyclononadecino[11,12-b]quinoline-10-carboxamide] yielded a Ki [1] of 0.59 nM and a Ki [2] of 0.093 nM.

With `C=C[C@@H]1C[C@]1(NC(=O)[C@@H]1C[C@@H]2CN1C(=O)[C@H](C1CCCC1)NC(=O)O[C@@H]1CCC[C@H]1CC/C=C/Cc1c(nc3ccccc3c1OCCCOP(=O)(O)O)O2)C(=O)NS(=O)(=O)C1CC1` [Example 95, 3-{[(3aR,7S,10S,12R,21E,24aS)-7-cyclopentyl-10-({(1R,2S)-1-[(cyclopropylsulfonyl)carbamoyl]-2-ethenylcyclopropyl}carbamoyl)-5,8-dioxo-1,2,3,3a,5,6,7,8,11,12,20,23,24,24a-tetradecahydro-10H-9,12-methanocyclopenta[18,19][1,10,3,6]dioxadiazacyclononadecino[11,12-b]quinolin-19-yl]oxy}propyl dihydrogen phosphate] the Ki [1] was 1 nM and the Ki [2] was 0.18 nM.

`C=C[C@@H]1C[C@]1(NC(=O)[C@@H]1C[C@@H]2CN1C(=O)[C@H](C(C)(C)C)NC(=O)O[C@@H]1CCC[C@H]1CCCCCc1c(nc3ccccc3c1OCCCN1CCCCC1)O2)C(=O)NS(=O)(=O)C1(COC)CC1` [Example 96, (3aR,7S,10S,12R,24aR)-7-tert-butyl-N-[(1R,2S)-2-ethenyl-1-({[1-(methoxymethyl)cyclopropyl]sulfonyl}carbamoyl)cyclopropyl]-5,8-dioxo-19-[3-(piperidin-1-yl)propoxy]-1,2,3,3a,5,6,7,8,11,12,20,21,22,23,24,24a-hexadecahydro-10H-9,12-methanocyclopenta[18,19][1,10,3,6]dioxadiazacyclononadecino[11,12-b]quinoline-10-carboxamide] gave a Ki [1] of 0.78 nM and a Ki [2] of 0.15 nM.

`C=C[C@@H]1C[C@]1(NC(=O)[C@@H]1C[C@@H]2CN1C(=O)[C@H](C(C)(C)C)NC(=O)O[C@@H]1CCC[C@H]1CCCCCc1c(nc3ccccc3c1OCCCN(C)C)O2)C(=O)NS(=O)(=O)C1(COC)CC1` [Example 97, (3aR,7S,10S,12R,24aR)-7-tert-butyl-19-[3-(dimethyl-amino)propoxy]-N-[(1R,2S)-2-ethenyl-1-({[1-(methoxymethyl)cyclopropyl]sulfonyl}carbamoyl)cyclopropyl]-5,8-dioxo-1,2,3,3a,5,6,7,8,11,12,20,21,22,23, 24,24a-hexadecahydro-10H-9,12-methanocyclopenta[18,19] [1,10,3,6]dioxadiaza-cyclononadecino [11,12,-b]quinoline-10-carboxamide] showed a Ki [1] of 73 nM and a Ki [2] of 0.08 nM.

In the case of `C=C[C@@H]1C[C@]1(NC(=O)[C@@H]1C[C@@H]2CN1C(=O)[C@H](C(C)(C)C)NC(=O)O[C@@H]1CCC[C@H]1CCCCCc1c(nc3ccccc3c1OCCCN1CCOCC1)O2)C(=O)NS(=O)(=O)C1CC1` [Example 98, (3aR,S,10S,12R,24aR)-7-tert-butyl-N-{(1R,2S)-1-[(cyclopropyl-sulfonyl)carbamoyl]-2-ethenylcyclopropyl}-19-[3-(morpholin-4-yl)propoxy]-5,8-dioxo-1,2,3,3a,5,6,7,8,11,12,20,21,22,23, 24,24a-hexadecahydro-10H-9,12-methanocyclopenta [18,19][1,10,3,6]dioxadiazacyclo-nonadecino[11,12-b]quinoline-10-carboxamide], the Ki [1] is reported as 2.9 nM and the Ki [2] is reported as 0.18 nM.

For `C=C[C@@H]1C[C@]1(NC(=O)[C@@H]1C[C@@H]2CN1C(=O)[C@H](C(C)(C)C)NC(=O)O[C@]1(C)C[C@H]1CCCCCc1c(nc3ccccc3c1OCCN1CCOCC1)O2)C(=O)NS(=O)(=O)C1(COC)CC1` [Example 99, (1aR,5S,8S,10R,22aR)-5-tert-butyl-N-[(1R,2S)-2-ethenyl-1-({[1-(methoxymethyl)cyclopropyl]sulfonyl}carbamoyl)cyclopropyl]-1a-methyl-17-[2-(morpholin-4-yl)ethoxy]-3,6-dioxo-1,1a, 3,4,5,6,9,10,18,19,20,21,22,22a-tetradecahydro-8H-7,10-methano-cyclopropa[18,19][1,10,3,6] dioxadiazacyclononadecino [11,12-b]quinoline-8-carboxamide], the Ki [1] was 2.8 nM and the Ki [2] was 0.28 nM.

`C=C[C@@H]1C[C@]1(NC(=O)[C@@H]1C[C@@H]2CN1C(=O)[C@H](C(C)(C)C)NC(=O)O[C@]1(C)C[C@H]1CCCCCc1c(nc3ccccc3c1OCCN1CCOCC1)O2)C(=O)NS(=O)(=O)C1CC1` [Example 100, (1aR,5S,8S,10R,22aR)-5-tert-butyl-N-{(1R,2S)-1-[(cyclopropylsulfonyl)carbamoyl]-2-ethenylcyclopropyl}-1a-methyl-17-[2-(morpholin-4-yl)ethoxy]-3,6-dioxo-1,1a,3,4,5,6,9, 10,18,19,20,21,22,22a-tetradecahydro-8H-7,10-methanocyclopropa[18,19] [1,10,3,6]dioxadiazacyclonona decino[11,12-b]quinoline-8-carboxamide] showed a Ki [1] of 2 nM and a Ki [2] of 0.24 nM.

`C=C[C@@H]1C[C@]1(NC(=O)[C@@H]1C[C@@H]2CN1C(=O)[C@H](C(C)(C)C)NC(=O)O[C@]1(C)C[C@H]1CCCCCc1c(nc3ccccc3c1OCCN1CCOCC1)O2)C(=O)NS(=O)(=O)C1(C)CC1` [Example 101, (1aR,5S,8S,10R,22aR)-5-tert-butyl-N-[(1R,2S)-2-ethenyl-1-{[(1-methylcyclopropyl)sulfonyl]carbamoyl}cyclopropyl]-1a-methyl-17-[2-(morpholin-4-yl)ethoxy]-3,6-dioxo-1,1,a, 3,4,5,6,9,10,18,19,20,21,22,22a-tetradecahydro-8H-7,10-methano-cyclopropa[18,19][1,10,3,6]dioxa diazacyclononadecino[11,12-b] quinoline-8-carboxamide] gave a Ki [1] of 0.96 nM and a Ki [2] of 0.09 nM.

Work on `C=C[C@@H]1C[C@]1(NC(=O)[C@@H]1C[C@@H]2CN1C(=O)[C@H](C(C)(C)C)NC(=O)O[C@@H]1CCC[C@H]1CCCCCc1c(nc3ccccc3c1OCCN1CCCC1)O2)C(=O)NS(=O)(=O)C1(COC)CC1` [Example 102, (3aR,7S,10S,12R,24aR)-7-tert-butyl-N-[(1R,2S)-2-ethenyl-1-({[1-(methoxymethyl)cyclopropyl]sulfonyl}carbamoyl)cyclopropyl]-5,8-dioxo-19-[2-(pyrrolidin-1-yl)ethoxy]-1,2,3,3a, 5,6,7,8,11,12,20,21,22,23,24,24a-hexadecahydro-10H-9,12-methanocyclopenta[18,19] [1,10,3,6]dioxadiazacyclo-nonadecino[11,12-b]quinoline-10-carboxamide] yielded a Ki [1] of 3.2 nM and a Ki [2] of 0.21 nM.
